We go through five compounds from US20240131038A1, “ANTI-INFLAMMATORY COMPOSITIONS COMPRISING CANNABIDIOL, DELTA-9-TETRAHYDROCANNABINOL AND LINALOOL” (Cymra Life Sciences Limited, priority 2020, published 2024).

Format in all cases: cell-based, murine
Common to all, as to details: for IC50: Mus musculus

The test system of test [1] is NO release. As to the kind of experiment: Nitric oxide (NO) assay: NO release in LPS-stimulated RAW264.7 macrophages (Griess reagent). The procedure:
(§1) Anti-inflammatory activity was determined in lipopolysaccharide (LPS) stimulated murine macrophages, RAW264.7 cells cultured in standard cell culture media (DMEM, Fetal bovine serum 5%) and incubated in the presence or absence of different test compounds/extracts and controls. The production of inflammatory mediators, including NO, cytokines TNFα and IL-6, were measured by established methods using commercial ELISA kits (Table 3). Each sample was tested with at least 6 concentrations (using 3 replicates; i.e., n=9), with relevant internal controls (Table 3). The cytotoxicity of each sample tested was determined by MTT assay.
(§2) Briefly, for the NO, TNFα and IL-6 assays the cultured RAW264.7 cells were counted and plated (0.8×10^5 cells/well) in 96 well plates and incubated for 48 hours. The medium was then aspirated and replaced with fresh medium followed by the addition of the test compounds. The compounds were incubated for 1 hour prior to the addition of the stimulant. The plates were then incubated for 18 hours and the supernatant analyzed for the inflammatory mediator of interest, the remaining cell viability was determined by MTT.
(§3) The data are presented as mean and standard error of mean (SEM). The dose response curves were fit using Graph Pad Prism. The 95% confidence intervals (CI) were calculated using the whole data set and give an estimate error in the IC50 value. The 95% CI for the IC50 where the IC50 was not reached in the testing concentrations require graphical extrapolation to calculate the IC50. Where the IC50 has been estimated by graphical extrapolation “˜” is used to indicate that it is an estimate and not experimentally determined, unless otherwise stated. The graphical extrapolation results in a wider 95% confidence interval.
(§4) The synergism combination index (CI) and isobologram IC50 weightings were calculated using Compsyn software. The dose response curve generated in GraphPad prism was transformed into 15 points representing the curve. These 15 points were then entered into the Compsyn program that generated a curve to fit the data points. This method was preferable to closely replicate the complete dose response curve in the synergy program. The Compsyn fit curve was then used for synergy calculations.
(§5) A CI value of less than 0.5 is considered highly synergistic, a CI of less than 1 indicates synergy, a CI of from 1.5 to 1 is considered additive, a CI of from 4 to 1.5 is indifferent and a CI greater than 4 is considered antagonism.

Test [2] has as its system TNF-α release. Briefly: TNF-α assay: TNF-α release in LPS-stimulated RAW264.7 macrophages (ELISA). The procedure:
as §1, §2, §3, §4, §5

Test [3] has as its system IL-6 release. As to the kind of experiment: IL-6 assay: IL-6 release in LPS-stimulated RAW264.7 macrophages (ELISA). The protocol:
as §1, §2, §3, §4, §5
Background: In an ELISA, binding on a coated surface is turned into a signal by an enzyme label.

The mark [4] stands for this setting: RAW264.7, 18 h, read-out: IC50 for NO inhibition.
The mark [5] stands for this setting: RAW264.7, 18 h, TNF-α inhibition, total concentration of the combination, Table 8, read-out: GraphPad IC50.
[6] abbreviates: RAW264.7, TNF-α inhibition, Compusyn fit curve, Table 8, read-out: Compusyn IC50.
[7] abbreviates: LPS-stimulated RAW264.7 cells, 18 h, Table 7, read-out: IC50 for TNF-α inhibition.
Where [8] appears, read: RAW264.7, read-out: Compusyn IC50.
The mark [9] stands for this setting: RAW264.7, 18 h, IL-6 assay, total concentration of the combination, Table 11, read-out: GraphPad IC50.
[10] abbreviates: RAW264.7, IL-6 assay, Compusyn fit curve, Table 11, read-out: Compusyn IC50.
Where [11] appears, read: LPS-stimulated RAW264.7 cells, 18 h, Table 10, read-out: IC50 for IL-6 inhibition.

Where two headings read alike, the source gives them in different places. Some results are limits rather than exact numbers.

What is called IC50 is the concentration that gives 50% inhibition. Regarding `CC(=N)NCc1cccc(CN)c1` [1400 W, N-(3-(Aminomethyl)benzyl)acetamidine], the IC50 in test [1] (setting [4]) stood at 1.2 mg/L.
Consider `C=CC(C)(O)CCC=C(C)C` (stereo not drawn) [Linalool, linalool], for which the IC50 in test [2] (setting [5]), in test [2] (setting [6]), in test [2] (setting [7]), in test [1] (setting [4]), in test [1] (setting [8]) and in test [3] (setting [9]) was > 240 mg/L in each case. In addition, the IC50 in test [3] (setting [10]) and in test [3] (setting [11]) was > 240 mg/L throughout. Also, the “Compusyn IC50” value is >240 mg/L in test [2] (TNF-α assay, Table 9); >240 mg/L in test [1] (NO assay, Table 6); >240 mg/L in test [3] (IL-6 assay, Table 12).
Consider `C[C@@H]1C[C@H]2[C@@H]3CCC4=CC(=O)C=C[C@]4(C)[C@@]3(F)[C@@H](O)C[C@]2(C)[C@@]1(O)C(=O)CO` [Dexamethasone, dexamethasone], for which the IC50 amounted to 2.7 mg/L in test [2] (setting [7]) and 0.016 mg/L in test [3] (setting [11]).
On to `CCCCCc1cc(O)c2c(c1)OC(C)(C)[C@@H]1CCC(C)=C[C@@H]21` [THC, Δ-9-tetrahydrocannabinol], for which the IC50 amounted to 44 mg/L in test [2] (setting [5]); 45 mg/L in test [2] (setting [6]); 44 mg/L in test [2] (setting [7]); 6.5 mg/L in test [1] (setting [4]); 6.5 mg/L in test [1] (setting [8]); 4.2 mg/L in test [3] (setting [9]). The IC50 in test [3] (setting [10]) and in test [3] (setting [11]) was 4.2 mg/L each time.
Consider `C=C(C)[C@@H]1CCC(C)=C[C@H]1c1c(O)cc(CCCCC)cc1O` [CBD, cannabidiol], for which, in test [2] (LPS-stimulated RAW264.7 cells), the “TNF-α inhibition and synergy, result in words” value was “most active compound for TNF-α inhibition”. For the same compound, the IC50 came out at 4.6 mg/L in test [2] (setting [5]); 4.6 mg/L in test [2] (setting [6]); 4.6 mg/L in test [2] (setting [7]); 1.4 mg/L in test [1] (setting [4]); 1.4 mg/L in test [1] (setting [8]); 1.4 mg/L in test [3] (setting [9]). Moreover, the IC50 in test [3] (setting [10]) and in test [3] (setting [11]) was 1.4 mg/L in each case. For the same compound, the “NO inhibition and synergy, result in words” value in test [1] (LPS-stimulated RAW264.7 cells) is “most active compound for NO inhibition”. In addition, in test [3] (LPS-stimulated RAW264.7 cells), the “IL-6 inhibition and synergy, result in words” value is listed as “most active compound for IL-6 inhibition”.
